Measurements as given in patent publication US20230165251A1, “SUBSTITUTED TOLYL FUNGICIDES AND THEIR MIXTURES” (FMC Corporation, priority 2020, published 2023).

Experiments:
Phakopsora pachyrhizi = assay: Test D: preventive spray on soybean seedlings, Asian soybean rust; assay type: in vivo; conditions: Rate 10 ppm; for pest or weed control at 10 ppm: Phakopsora pachyrhizi, 216 h, read-out: Test D disease control rating
Text: (§1) General protocol for preparing test suspensions for Tests A-F: the test compounds were first dissolved in acetone in an amount equal to 3% of the final volume and then suspended at the desired concentration (in ppm) in acetone and purified water (50/50 mix by volume) containing 250 ppm of the surfactant PEG400 (polyhydric alcohol esters). The resulting test suspensions were then used in Tests A-F.
The test solution was sprayed to the point of run-off on soybean seedlings. The following day the seedlings were inoculated with a spore suspension of Phakopsora pachyrhizi (the causal agent of Asian soybean rust) and incubated in a saturated atmosphere at 22° C. for 24 h and then moved to a growth chamber at 22° C. for 8 days, after which time visual disease ratings were made.
(§2) A rating of 100 indicates 100% disease control and a rating of 0 indicates no disease control (relative to the controls). A dash (-) indicates the compound was not tested.

[1] = tested on: Puccinia recondita f. sp. tritici; assay: Test B: preventive spray on wheat seedlings, wheat leaf rust; assay type: in vivo; conditions: for pest or weed control at 10 ppm: Puccinia recondita, 192 h, read-out: Test B disease control rating
Text: as §1
The test solution was sprayed to the point of run-off on wheat seedlings. The following day the seedlings were inoculated with a spore suspension of Puccinia recondita f. sp. tritici (the causal agent of wheat leaf rust) and incubated in a saturated atmosphere at 20° C. for 24 h, and then moved to a growth chamber at 20° C. for 7 days, after which time disease ratings were made.
as §2

| Molecule | pest or weed control at 10 ppm (Phakopsora pachyrhizi) [%] | pest or weed control at 10 ppm ([1]; Rate 10 ppm) [%] | Test D disease control rating (Phakopsora pachyrhizi) [%] | Test B disease control rating ([1]; Rate 10 ppm) [%] | Test B disease control rating ([1]; Rate 2 ppm) [%] |
| --- | --- | --- | --- | --- | --- |
| CO/N=C(\C)c1cc(F)c(-n2ccc(-c3ccc(C)c(CNC(=O)OC)c3)n2)c(F)c1 [Compound 83, methyl (E)-N-[[5-[1-[2,6-difluoro-4-[1-(methoxyimino)ethyl]phenyl]-1H-pyrazol-3-yl]-2-methylphenyl]methyl]carbamate] | 100 | 100 |  |  |  |
| COC(=O)NCc1cc(-c2ccn(-c3c(F)cc(C4CC4(F)F)cc3F)n2)ccc1C (centres unmarked) [Compound 89, methyl N-[[5-[1-[4-(2,2-difluorocyclopropyl)-2,6-difluorophenyl]-1H-pyrazol-3-yl]-2-methylphenyl]methyl]carbamate] | 100 | 100 |  |  |  |
| CO/N=C(/C)c1cc(F)c(-n2ccc(-c3ccc(C)c(CNC(=O)OC)c3)n2)c(F)c1 [Compound 99, methyl (Z)-N-[[5-[1-[2,6-difluoro-4-[1-(methoxyimino)ethyl]phenyl]-1H-pyrazol-3-yl]-2-methylphenyl]methyl]carbamate] | 100 | 100 |  |  |  |
| COC(=O)NCc1cc(-c2ccn(-c3c(F)cc(C4OCCCO4)cc3F)n2)ccc1C [Compound 134] |  |  | 100 | 89 |  |
| CCC(C)c1cc(F)c(-n2ncc(-c3ccc(C)c(CNC(=O)OC)c3)n2)c(F)c1 (centres unmarked) [Compound 139, methyl N-[[5-[2-[2,6-difluoro-4-(1-methylpropyl)phenyl]-2H-1,2,3-triazol-4-yl]-2-methylphenyl]methyl]carbamate] | 100 | 99 |  |  |  |
| COC(=O)NNc1cc(-c2ccn(-c3c(F)cccc3F)n2)ccc1C [Compound 154] | 25 | 0 |  |  |  |
| COC(=O)NNc1cc(-c2ccn(-c3c(F)cc(C(C)C)cc3F)n2)ccc1C [Compound 155] | 100 | 91 |  |  |  |
| COC(=O)NNc1cc(-c2ccn(-c3c(F)cc(C(F)(F)F)cc3F)n2)ccc1C [Compound 156] | 54 | 85 |  |  |  |
| COC(=O)NCc1cc(-c2ccn(-c3c(F)cc(OCC(F)(F)F)cc3F)n2)ccc1C [compound 22] |  |  | 100 | 99 |  |
| COC(=O)NCc1cc(-c2ccn(-c3c(F)cc(I)cc3SC)n2)ccc1C [compound 26] |  |  | 87 | 73 |  |
| COC(=O)NCc1cc(-c2ccn(-c3c(F)cc(SC)cc3F)n2)ccc1C [compound 27] |  |  | 100 | 99 |  |
| COC(=O)NCc1cc(-c2ccn(-c3c(F)cc(SC)cc3SC)n2)ccc1C [compound 28] |  |  | 100 | 0 |  |
| COC(=O)NCc1cc(-c2ccn(-c3c(F)cc(OC)cc3OC)n2)ccc1C [compound 34] |  |  | 96 | 28 |  |
| COC(=O)NCc1cc(-c2ccn(-c3c(C)cc([N+](=O)[O-])cc3C)n2)ccc1C [compound 35] |  |  | 0 | 0 |  |
| CNc1cc(F)c(-n2ccc(-c3ccc(C)c(CNC(=O)OC)c3)n2)c(F)c1 [compound 36] |  |  | 100 | 68 |  |
| COC(=O)NCc1cc(-c2ccn(-c3c(F)cc([N+](=O)[O-])cc3Cl)n2)ccc1C [compound 37] |  |  | 0 | 26 |  |
| COC(=O)NCc1cc(-c2ccn(-c3c(C)cc(N)cc3C)n2)ccc1C [compound 38] |  |  | 0 | 0 |  |
| COC(=O)NCc1cc(-c2ccn(-c3c(F)cc(N)cc3Cl)n2)ccc1C [compound 39] |  |  | 0 | 0 |  |
| COC(=O)NCc1cc(-c2ccn(-c3c(C)cc(OC)cc3C)n2)ccc1C [compound 40] |  |  | 99 | 0 |  |
| COC(=O)NCc1cc(-c2ccn(-c3c(Cl)cccc3Cl)n2)ccc1C [compound 44] |  |  | 100 | 68 |  |
| COC(=O)NCc1cc(-c2ccn(-c3c(F)cccc3I)n2)ccc1C [compound 45] |  |  | 100 | 0 |  |
| COC(=O)NCc1cc(-c2ccn(-c3c(F)cccc3Br)n2)ccc1C [compound 46] |  |  | 100 | 68 |  |

| Molecule | pest or weed control at 10 ppm (Phakopsora pachyrhizi) [%] | pest or weed control at 10 ppm ([1]; Rate 10 ppm) [%] | Test D disease control rating (Phakopsora pachyrhizi) [%] | Test B disease control rating ([1]; Rate 10 ppm) [%] | Test B disease control rating ([1]; Rate 2 ppm) [%] |
| --- | --- | --- | --- | --- | --- |
| COC(=O)NCc1cc(-c2ccn(-c3c(F)cccc3Cl)n2)ccc1C [compound 47] |  |  | 100 | 74 |  |
| COC(=O)NCc1cc(-c2ccn(-c3c(C)cc(Br)cc3C)n2)ccc1C [compound 48] |  |  | 99 | 68 |  |
| COC(=O)NCc1cc(-c2ccn(-c3c(C)cc(Cl)cc3C)n2)ccc1C [compound 49] |  |  | 99 | 68 |  |
| COC(=O)NCc1cc(-c2ccn(-c3c(F)cc(Br)cc3Cl)n2)ccc1C [compound 50] |  |  | 100 | 100 |  |
| COC(=O)NCc1cc(-c2ccn(-c3c(F)cc(Cl)cc3Cl)n2)ccc1C [compound 51] |  |  | 100 | 100 |  |
| COC(=O)NCc1cc(-c2ccn(-c3c(Br)cccc3I)n2)ccc1C [compound 52] |  |  | 99 | 0 |  |
| COC(=O)NCc1cc(-c2ccn(-c3c(Cl)cc([N+](=O)[O-])cc3Cl)n2)ccc1C [compound 54] |  |  | 0 | 0 |  |
| COC(=O)NCc1cc(-c2ccn(-c3c(Cl)cc(N)cc3Cl)n2)ccc1C [compound 55] |  |  | 0 | 0 |  |
| COC(=O)NCc1cc(-c2ccn(-c3c(Cl)cc(Br)cc3Cl)n2)ccc1C [compound 56] |  |  | 100 | 80 |  |
| COC(=O)NCc1cc(-c2ccn(-c3c(Cl)cc(Cl)cc3Cl)n2)ccc1C [compound 57] |  |  | 100 | 74 |  |
| COC(=O)NCc1cc(-c2ccn(-c3c(Br)cccc3Br)n2)ccc1C [compound 58] |  |  | 100 | 68 |  |
| COC(=O)NCc1cc(-c2ccn(-c3c(Cl)cccc3I)n2)ccc1C [compound 59] |  |  | 87 | 45 |  |
| COC(=O)NCc1cc(-c2ccn(-c3c(Cl)cccc3Br)n2)ccc1C [compound 60] |  |  | 100 | 68 |  |
| COC(=O)NCc1cc(-c2ccn(-c3c(C)cccc3Br)n2)ccc1C [compound 61] |  |  | 97 | 68 |  |
| COC(=O)NCc1cc(-c2ccn(-c3c(F)cc(OCF)cc3F)n2)ccc1C [compound 73] |  |  | 100 | 100 |  |
| COC(=O)NCc1cc(-c2ccn(-c3c(F)cc(C4(C)CC4)cc3F)n2)ccc1C [compound 74] |  |  | 100 | 100 |  |
| COC(=O)NCc1cc(-c2ccn(-c3c(F)cc(CF)cc3F)n2)ccc1C [compound 77] |  |  | 100 | 100 |  |
| COC(=O)NCc1cc(-c2cn(-c3c(F)cc(C)cc3F)nn2)ccc1C [compound 119] |  |  | 0 | 100 |  |
| methyl N-[[5-[1-[2,6-dichloro-4-(1,1-dimethylethyl)phenyl]-1H-pyrazol-3-yl]-2-methylphenyl]methyl]carbamate [Compound 135] |  |  |  | 86 |  |
| methyl N-[[5-[1-[2,6-difluoro-4-(2-propyn-1-yloxy)phenyl]-1H-pyrazol-3-yl]-2-methylphenyl]methyl]carbamate [Compound 30] |  |  |  | 98 |  |
| methyl N-[[5-[2-[2,6-difluoro-4-(1-methylethyl)phenyl]-2H-1,2,3-triazol-4-yl]-2-methylphenyl]methyl]carbamate [Compound 108] |  |  |  |  | 100 |
